# Results from patent US20260199224A1, “Compositions comprising Sanguisorba officinalis root extract and uses thereof” (Clariant International Ltd, priority 2022, published 2026).
# What was measured:
# [1] = test system: Clostridium histolyticum collagenase (type IA); experiment: Anti-collagenase activity, FALGPA degradation followed by UHPLC; type: biochemical; settings: 25 μM; for Residual activity, ActR (%) of collagenase: 30 minutes
# Method: FDTA-I and FDTA-II were purified from stimulated roots of Sanguisorba officinalis, where the plant has been stimulated by using a nutrient medium without nitrogen (N/P/K 0/15/40) for 1 to 3 weeks. 10 g of dried and grinded (1 mm) roots were macerated in 100 ml of ethyl acetate for 24 h at 50° C. The purified fraction of FDTA-I and FDTA-II was obtained by preparative HPLC and characterized by mass spectrometry. Ferulic acid and TA have been purchased commercially. In addition, it was also included in the test ziyuglycoside I, an active compound isolated from Sanguisorba officinalis roots known to hold various activities including increased expression of type I collagen. For the comparison, SORE was obtained as presented in example 1. The anti-collagenase inhibiting activity was measured by following the kinetics of collagenase-driven degradation of collagenase substrate: FALGPA (N-[3-(2-Furyl) acryloyl]-Leu-Gly-Pro-Ala) into FAL (N-[3-(2-Furyl) acryloyl]-Leu) and Gly-Pro-Ala.
# Briefly, a volume of 100 μL of 1.5 mM solution of FALGPA in 50 mM tricine buffer with 10 mM calcium chloride and 400 mM sodium chloride, pH 7.5 (Bachem, 4006713.0025) was mixed with a volume of 10 μL of test sample or pure solvent of the test sample (positive control), followed by a volume of 10 μL of 0.05 mg/ml of Clostridium histolyticum collagenase (type IA, Sigma-Aldrich, C9891). To determine the rate of enzymatic conversion, the content of FAL was quantified at the beginning of the reaction and 30 minutes after its initialization by stopping the enzymatic conversion of FALGPA by EDTA. To quench the enzymatic conversion, a volume of 50 μL of the test sample was mixed with a volume of 50 μL of EDTA (0.2 M in water). The content of FAL in the samples was then quantified by UHPLC method optimized to separate FALGPA and FAL. The analysis was conducted using Kinetex Biphenyl reverse phase column (150 mm×2.1 mm, 2.6 μm, Phenomenex, Torrance, USA), maintained at 40° C. The mobile phase was composed of water containing 0.1% vol. of formic acid (A) and pure acetonitrile (B), delivered at 0.5 ml/min with the gradient of B phase as follows: 5-41% (0-9 min); 41-90% (9-9.05 min); hold at 90% (9.05-11.50 min); 90-5% (11.50-11.55 min), hold at 5% (11.55-14.50 min). Sample injection volume was 5 μL and FALGPA/FAL detection at 338 nm. Residual activity and the inhibition degree of collagenase in the presence of test sample X was then calculated using the following equation: […]
# ActR %—residual activity; Inh %—inhibition degree; AUC—peak area of FAL; EchX tested sample; BL—blank.
# [2] = test system: bovine hyaluronidase, Type IS; experiment: Anti-hyaluronidase activity, intact hyaluronic acid by BSA turbidity at 600 nm; type: biochemical; settings: 15 μM
# Method: FDTA-I and FDTA-II were purified from stimulated roots of Sanguisorba officinalis as described in example 10. In addition, ziyuglycoside I was also included in the test. For the comparison, SORE was prepared as presented in example 1.
# Hyaluronidase catalyzes the degradation reaction of hyaluronic acid (HA). The test is based on the quantification of intact HA content in the presence/absence of an extract of interest and/or compounds of interest. The degradation rate of HA content is proportional to enzymatic activity of hyaluronidase and inversely proportional to the inhibition power of the extract.
# The reaction mixture was prepared as follows: 37.5 μL of 20 mM PHB buffer pH 7, 187.5 μL of hyaluronidase solution (bovine hyaluronidase, Type IS, Sigma) 0.02 mg/mL, and 25 μL of sample (SORE or pure FDTA-I and FDTA-II to be tested). In the case of table 13, the pure FDTA-I and FDTA-II as well as SORE were in pure propane-1,3-diol. In the case of table 14, the pure FDTA-I and FDTA-II were in 100% ethanol. The mixture was incubated for 10 minutes at room temperature and then 250 μL of HA substrate (0.3 mg/mL in phosphate buffer) are added to initiate the reaction. Incubation is done in a Thermomixer at 37° C., under agitation (450 rpm). The reaction was monitored for 60 minutes with a sampling of the reaction mix (50 μL) every 15 minutes. These samples were inserted into the wells of a microplate containing 200 μL of BSA solution 0.1% pH 3.75 and incubated in BSA for 10 minutes. The HA formed aggregates with the BSA solution which precipitates. Thus, the amount of precipitating BSA was proportional to the optical density at 600 nm which allows to monitor the enzymatic reaction. The microplate was finally inserted into the spectrophotometer and the optical density was measured at this wavelength.
# [3] = mouse, in vivo; cited from earlier work
# [4] = sample in 100% ethanol (table 14)
# [5] = sample in pure propane-1,3-diol (table 13)
Molecule,inhibition of collagenase IA (Inh %) [1],"Residual activity, ActR (%) of collagenase [1] [%]","effect on hyaluronidase, in words ([2]; comment on table 13)","effect on hyaluronidase, in words ([2]; comment on table 14)","Residual activity of hyaluronidase (%) [2, 4] [%]","Residual activity of hyaluronidase (%) [2, 5] [%]",toxicity in mice [3]
"COc1cc(/C=C/C(=O)OC2C(O)CC3(C)C(CCC4(C)C3CC=C3C5C(C(=O)O)(CCC(C)C5(C)O)CCC34C)C2(C)C)ccc1O (centres unmarked) [FDTA-I, feruloylated derivative of tormentic acid]",76%,24,acted as a hyaluronidase inhibitor,acted as hyaluronidase inhibitors,69,9.5,–
"COc1cc(/C=C/C(=O)OC2C(O)CC3(C)C(CCC4(C)C3CC=C3C5C(C)C(C)CCC5(C(=O)O)CCC34C)C2(C)C)ccc1O (centres unmarked) [FDTA-II, feruloylated derivative of deoxy-tormentic acid]",36%,64,–,acted as hyaluronidase inhibitors,89,–,–
"COc1cc(/C=C/C(=O)O)ccc1O [Ferulic acid, ferulic acid]",do not have any effect,96,did not have any effect,–,–,103,–
"C[C@@H]1CC[C@]2(C(=O)O)CC[C@]3(C)C(=CC[C@@H]4[C@@]5(C)C[C@@H](O)[C@H](O)C(C)(C)[C@@H]5CC[C@]43C)[C@@H]2[C@]1(C)O [TA, tormentic acid]",do not have any effect,98,did not have any effect,–,–,98,–
C[C@@H]1CC[C@]2(C(=O)O[C@@H]3O[C@H](CO)[C@@H](O)[C@H](O)[C@H]3O)CC[C@]3(C)C(=CC[C@@H]4[C@@]5(C)CC[C@H](O[C@@H]6OC[C@H](O)[C@H](O)[C@H]6O)C(C)(C)[C@@H]5CC[C@]43C)[C@@H]2[C@]1(C)O [Ziyuglycoside I],did not have any enzymatic inhibitory effect,106,–,did not have any effect,107,–,–
Oryzanol,–,–,–,–,–,–,did not demonstrate any toxicity
